Results taken from patent US8618287B2, “Derivatives of triazines and uracils, their preparation and their application in human therapeutics” (Pierre Fabre Medicament, priority 2008, dated 2013).

Experiments:
Human SCD-1 = target: T1, Human SCD-1 (Homo sapiens, UniProt O00767); experiment: Human SCD-1 enzymatic activity from microsomes of HepG2 cells (conversion of stearic acid into oleic acid); type: biochemical; conditions: 10 μM compound; microsomal fraction of HepG2 cells; relative to carrier 0.1% DMSO; read-out: HSCD-1 (HEPG2) % inh. (10 μM)
T1 construct: adding 125 μg of microsomal fraction of HepG2 cells; host or cells: HepG2 human hepatocarcinoma cells (microsomal fraction)
T1 sequence (O00767 1-359): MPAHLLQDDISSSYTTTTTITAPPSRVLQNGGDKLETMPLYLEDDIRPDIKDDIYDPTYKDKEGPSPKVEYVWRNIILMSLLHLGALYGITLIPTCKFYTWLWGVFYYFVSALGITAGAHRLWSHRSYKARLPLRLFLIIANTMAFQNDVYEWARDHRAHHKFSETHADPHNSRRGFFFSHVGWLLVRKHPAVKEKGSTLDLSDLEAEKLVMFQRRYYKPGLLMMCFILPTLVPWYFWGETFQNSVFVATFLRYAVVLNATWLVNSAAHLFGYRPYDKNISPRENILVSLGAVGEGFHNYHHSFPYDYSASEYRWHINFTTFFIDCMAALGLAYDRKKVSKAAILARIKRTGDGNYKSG
Protocol: In vitro: Human SCD-1 enzymatic activity from microsomes of HepG2 cells after treatment with inhibitory compounds (inhibition %).
Human hepatocarcinoma HepG2 cells (ATCC, HB-8065) are grown to confluence and then trypsinized. The cell pellet is taken up in 10 mM Tris buffer (pH 7.4), saccharose (250 mM) DTT (1 mM) and then the cells are lyzed by sonication. The microsomes are obtained after centrifugation at 10,000 g for 20 minutes a 4° C. followed by centrifugation of the supernatant at 100,000 g for 60 minutes a 4° C. The pellet is taken up in 10 mM Tris buffer (pH 7.4) saccharose (250 mM) at 4° C. and the microsomal proteins are assayed and stored at −196° C. (liquid nitrogen).
The enzymatic reaction measures the conversion of stearic acid (a C18:0 fatty acid) into oleic acid (C18:1 fatty acid) by SCD-1. The enzymatic reaction is started by adding 125 μg of microsomal fraction of HepG2 cells to tubes (total reaction volume of 500 μl) containing 62 μM of stearic acid (45 μM of stearic acid and 17 μM of [^14C] stearic acid) in a phosphate buffer at 100 mM (pH 7.16) with 7.2 mM of ATP, 0.54 mM of CoA, 6 mM of MgCl2, 0.8 mM of NADH and the inhibitory compound or the carrier (0.1% DMSO). The tubes are incubated for 20 minutes at 37° C. and the enzymatic reaction is then stopped by adding KOH (12%) and saponification for 30 minutes at 80° C. After acidification (3N HCl), the fatty acids are extracted twice with ethyl ether, evaporated under nitrogen before being taken up with a methanol/dichloromethane (3:1) mixture. The product of the reaction (C18:1) is separated from the substrate of the reaction (C18:0) by HPLC (Perkin Elmer, C18 reverse phase column) coupled to a on-line radioactivity detector (FlowOne). Enzymatic activity is calculated in picomoles of stearic acid converted into oleic acid per minute and per mg of protein. For each inhibitory compound, an inhibition % is determined relatively to the reference enzymatic activity (carrier 0.1% DMSO). Sterculic acid is the reference inhibitory compound (Gomez F. E., Bauman D. E., Ntambi J. M., Fox B. G. Effects of sterculic acid on stearoyl-CoA desaturase in differentiating […] adipocytes. Biochem Biophys Res Commun. 300 316-326 (2003)).

Structure (SMILES) | melting point | inhibition at 10 µM (Human SCD-1)
Cn1c(=O)c(N2CCC(Oc3ccccc3C(F)(F)F)CC2)nn(-c2cccnc2)c1=O [Example 81, 4-methyl-2-pyridin-3-yl-6-[4-(2-trifluoromethyl-phenoxy)-piperidin-1-yl]-2H-[1,2,4]triazine-3,5-dione] | 63 °C | 98%
Cn1c(=O)c(N2CCC(Oc3ccccc3C(F)(F)F)CC2)nn(-c2ccsc2)c1=O [Example 82, 4-methyl-2-thiophen-3-yl-6-[4-(2-trifluoromethyl-phenoxy)-piperidin-1-yl]-2H-[1,2,4]triazine-3,5-dione] | 85 °C | 100%
Cn1c(=O)c(N2CCC(Oc3ccccc3C(F)(F)F)CC2)nn(-c2ccc(C#N)cc2)c1=O [Example 83, 4-{4-methyl-3,5-dioxo-6-[4-(2-trifluoromethyl-phenoxy)-piperidin-1-yl]-4,5-dihydro-3H-[1,2,4]triazin-2-yl}-benzonitrile] | 72 °C | 79%
COc1ccccc1-n1nc(N2CCC(Oc3ccccc3C(F)(F)F)CC2)c(=O)n(C)c1=O [Example 84, 2-(2-methoxy-phenyl)-4-methyl-6-[4-(2-trifluoromethyl-phenoxy)-piperidin-1-yl]-2H-[1,2,4]triazine-3,5-dione] | 128 °C | 53%
Cn1c(=O)[nH]nc(N2CCC(Oc3ccccc3C(F)(F)F)CC2)c1=O [Example 85, 4-methyl-6-[4-(2-trifluoromethyl-phenoxy)-piperidin-1-yl]-2H-[1,2,4]triazine-3,5-dione] | 150 °C | 95%
Cn1c(=O)c(N2CCC(Oc3ccccc3C(F)(F)F)CC2)nn(C2CCCCC2=O)c1=O (stereo not shown) [Example 86, 4-methyl-2-(2-oxo-cyclohexyl)-6-[4-(2-trifluoromethyl-phenoxy)-piperidin-1-yl]-2H-[1,2,4]triazine-3,5-dione] | 65 °C | 90%
CCOCCOCCn1nc(N2CCC(Oc3ccccc3C(F)(F)F)CC2)c(=O)n(C)c1=O [Example 88, 2-[2-(2-ethoxy-ethoxy)-ethyl]-4-methyl-6-[4-(2-trifluoromethyl-phenoxy)-piperidin-1-yl]-2H-[1,2,4]triazine-3,5-dione] | 44 °C | 48%
Cn1c(=O)c(N2CCC(Oc3ccccc3C(F)(F)F)CC2)nn(CCO)c1=O [Example 89, 2-(2-hydroxy-ethyl)-4-methyl-6-[4-(2-trifluoromethyl-phenoxy)-piperidin-1-yl]-2H-[1,2,4]triazine-3,5-dione] | 112 °C | 100%
